Test results: ChEMBL document CHEMBL1132959, “Design of potent dicyclic (1-5/4-10) gonadotropin releasing hormone (GnRH) antagonists” (J Med Chem, 2000)
One block for each molecule: values may come before it. Bridge positions count the residues as written; N and C are the ends. Square brackets hold non-standard residues; d marks the D form. Peptide text beside a SMILES is read from it. dPhe(4-F) = N[C@H](Cc1ccc(F)cc1)C(=O)O; d2Nal = N[C@H](Cc1ccc2ccccc2c1)C(=O)O; ΔPro = O=C(O)[C@@H]1C=CCN1; Dap = NC[C@H](N)C(=O)O

Key:
Rattus norvegicus [1] = organism: Rattus norvegicus; assay: Antiovulatory potency at 50 ug/rat expressed as rats ovulating by total no. of rats (5/5); type: functional
Rattus norvegicus [2] = organism: Rattus norvegicus; assay: Antiovulatory potency at 250 ug/rat expressed as rats ovulating by total no. of rats (5/6); type: functional
[3] = target: T1, Gonadotropin-releasing hormone receptor (Rattus norvegicus, UniProt P30969); assay: Affinity for rat gonadotrophin releasing hormone (GnRH) receptor using HEK293 cells transfected with rat Gonadotropin-releasing hormone receptor; type: cell-based; settings: hek293
T1 sequence (P30969 whole entry): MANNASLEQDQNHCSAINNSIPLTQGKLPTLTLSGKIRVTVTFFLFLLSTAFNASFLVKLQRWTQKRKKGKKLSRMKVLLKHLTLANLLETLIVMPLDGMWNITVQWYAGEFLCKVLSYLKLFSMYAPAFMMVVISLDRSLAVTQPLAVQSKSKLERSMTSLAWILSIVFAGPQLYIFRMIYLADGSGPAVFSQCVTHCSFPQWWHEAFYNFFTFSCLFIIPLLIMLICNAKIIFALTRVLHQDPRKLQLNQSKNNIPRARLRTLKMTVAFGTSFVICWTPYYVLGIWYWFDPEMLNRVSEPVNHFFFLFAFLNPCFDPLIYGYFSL

Rattus norvegicus [4] = organism: Rattus norvegicus; assay: Antiovulatory potency at 250 ug/rat expressed as rats ovulating by total no. of rats (3/3); type: functional
Rattus norvegicus [5] = organism: Rattus norvegicus; assay: Antiovulatory potency at 5 ug/rat expressed as rats ovulating by total no. of rats (2/8); type: functional
Rattus norvegicus [6] = organism: Rattus norvegicus; assay: Antiovulatory potency at 25 ug/rat expressed as rats ovulating by total no. of rats (0/3); type: functional
Rattus norvegicus [7] = organism: Rattus norvegicus; assay: Antiovulatory potency at 10 ug/rat expressed as rats ovulating by total no. of rats (1/6); type: functional
[8] = target: T1, Gonadotropin-releasing hormone receptor; assay: Affinity for rat Gonadotropin-releasing hormone receptor membrane evaluated using HEK293 cells transfected with rat Gonadotropin-releasing hormone receptor; type: cell-based
Rattus norvegicus [9] = organism: Rattus norvegicus; assay: Antiovulatory potency at 10 ug/rat expressed as rats ovulating by total no. of rats (4/5); type: functional
Rattus norvegicus [10] = organism: Rattus norvegicus; assay: Antiovulatory potency at 25 ug/rat expressed as rats ovulating by total no. of rats (3/8); type: functional
Rattus norvegicus [11] = organism: Rattus norvegicus; assay: Antiovulatory potency at 50 ug/rat expressed as rats ovulating by total no. of rats (0/3); type: functional
Rattus norvegicus [12] = organism: Rattus norvegicus; assay: Antiovulatory potency at 25 ug/rat expressed as rats ovulating by total no. of rats (2/4); type: functional
Rattus norvegicus [13] = organism: Rattus norvegicus; assay: Antiovulatory potency at 10 ug/rat expressed as rats ovulating by total no. of rats (0/5); type: functional
Rattus norvegicus [14] = organism: Rattus norvegicus; assay: Antiovulatory potency at 10 ug/rat expressed as rats ovulating by total no. of rats (5/6); type: functional
Rattus norvegicus [15] = organism: Rattus norvegicus; assay: Antiovulatory potency at 25 ug/rat expressed as rats ovulating by total no. of rats (7/8); type: functional
Rattus norvegicus [16] = organism: Rattus norvegicus; assay: Antiovulatory potency at 50 ug/rat expressed as rats ovulating by total no. of rats (0/6); type: functional
Rattus norvegicus [17] = organism: Rattus norvegicus; assay: Antiovulatory potency at 100 ug/rat expressed as rats ovulating by total no. of rats (7/12); type: functional
Rattus norvegicus [18] = organism: Rattus norvegicus; assay: Antiovulatory potency at 10 ug/rat expressed as rats ovulating by total no. of rats (0/10); type: functional
Rattus norvegicus [19] = organism: Rattus norvegicus; assay: Antiovulatory potency at 5 ug/rat expressed as rats ovulating by total no. of rats (4/10); type: functional
Rattus norvegicus [20] = organism: Rattus norvegicus; assay: Antiovulatory potency at 5 ug/rat expressed as rats ovulating by total no. of rats (1/7); type: functional
Rattus norvegicus [21] = organism: Rattus norvegicus; assay: Antiovulatory potency at 2.5 ug/rat expressed as rats ovulating by total no. of rats (2/8); type: functional
Rattus norvegicus [22] = organism: Rattus norvegicus; assay: Antiovulatory potency at 10 ug/rat expressed as rats ovulating by total no. of rats (0/6); type: functional

SMILES: CC(=O)N[C@H](Cc1ccc2ccccc2c1)C(=O)N[C@H](Cc1ccc(Cl)cc1)C(=O)N[C@@H]1CSSC[C@@H](C(=O)N2CCC[C@H]2C(=O)N[C@H](C)C(N)=O)NC(=O)[C@H](CC(C)C)NC(=O)[C@@H](Cc2ccc3ccccc3c2)NC(=O)[C@H](CCCN=C(N)N)NC(=O)[C@H](C)NC1=O
- Ovulating rats (Rattus norvegicus [1]): 5
- Ovulating rats (Rattus norvegicus [2]): 5

SMILES: CC(=O)N[C@H](Cc1ccc2ccccc2c1)C(=O)N[C@H](Cc1ccc(F)cc1)C(=O)N[C@H](Cc1cccnc1)C(=O)N[C@H]1CC(=O)NC[C@@H](C(N)=O)NC(=O)[C@@H]2CCCN2C(=O)[C@@H]2CCNC(=O)CNC(=O)CC[C@H](NC1=O)C(=O)N[C@H](CCCN=C(N)N)C(=O)N[C@@H](CC(C)C)C(=O)N2
- Ovulating rats (Rattus norvegicus [5]): 2
- Ovulating rats (Rattus norvegicus [6]): 0
- Ovulating rats (Rattus norvegicus [7]): 1

SMILES: CC(=O)N1CC=C[C@H]1C(=O)N[C@H](Cc1ccc(F)cc1)C(=O)N[C@H](Cc1c[nH]c2ccccc12)C(=O)N[C@H]1CC(=O)NC[C@@H](C(N)=O)NC(=O)[C@@H]2CCCN2C(=O)[C@H](CCCN=C(N)N)NC(=O)[C@H](CC(C)C)NC(=O)[C@@H](Cc2ccc3ccccc3c2)NC(=O)[C@H](Cc2ccc(O)cc2)NC1=O (Ac-[ΔPro][dPhe(4-F)][dW]DY[d2Nal]LRP[Dap]-NH2; lactam 4-10)
- Ovulating rats (Rattus norvegicus [18]): 0
- Ovulating rats (Rattus norvegicus [19]): 4

SMILES: CC(=O)N[C@@H]1CCC(=O)NCC(=O)NCC[C@H]2NC(=O)[C@@H](CC(=O)NC[C@H](C(N)=O)NC(=O)[C@H]3CCCN3C(=O)[C@H](CCCN=C(N)N)NC(=O)[C@@H](CC(C)C)NC(=O)[C@@H](Cc3ccc4ccccc4c3)NC2=O)NC(=O)[C@@H](Cc2c[nH]c3ccccc23)NC(=O)[C@H](Cc2ccc(Cl)cc2)NC1=O
- Ovulating rats (Rattus norvegicus [20]): 1
- Ovulating rats (Rattus norvegicus [21]): 2
- Ovulating rats (Rattus norvegicus [22]): 0

Now from value to molecule, other results behind:

- Ki [3]: 1.6 nM
SMILES: CC(=O)N[C@@H]1CC(=O)NCC(=O)NCC[C@H]2NC(=O)[C@@H](CC(=O)NC[C@H](C(N)=O)NC(=O)[C@H]3CCCN3C(=O)[C@H](CCCN=C(N)N)NC(=O)[C@@H](CC(C)C)NC(=O)[C@@H](Cc3cccnc3)NC2=O)NC(=O)[C@@H](Cc2cccnc2)NC(=O)[C@H](Cc2ccc(Cl)cc2)NC1=O
- Ovulating rats (Rattus norvegicus [4]): 3

- Ki [8]: 0.26 nM
SMILES: CC(=O)N[C@@H]1CCC(=O)NCCCC[C@H]2NC(=O)[C@@H](CC(=O)NC[C@H](C(N)=O)NC(=O)[C@H]3CCCN3C(=O)[C@H](CCCN=C(N)N)NC(=O)[C@@H](CC(C)C)NC(=O)[C@@H](Cc3ccc4ccccc4c3)NC2=O)NC(=O)[C@@H](Cc2c[nH]c3ccccc23)NC(=O)[C@H](Cc2ccc(Cl)cc2)NC1=O
- Ovulating rats (Rattus norvegicus [9]): 4
- Ovulating rats (Rattus norvegicus [10]): 3
- Ovulating rats (Rattus norvegicus [11]): 0

- Ki [3]: 0.22 nM
SMILES: CC(=O)N[C@@H]1CCC(=O)N[C@H](C)C(=O)NCC[C@H]2NC(=O)[C@@H](CC(=O)NC[C@H](C(N)=O)NC(=O)[C@H]3CCCN3C(=O)[C@H](CCCN=C(N)N)NC(=O)[C@@H](CC(C)C)NC(=O)[C@@H](Cc3ccc4ccccc4c3)NC2=O)NC(=O)[C@@H](Cc2c[nH]c3ccccc23)NC(=O)[C@H](Cc2ccc(Cl)cc2)NC1=O
- Ovulating rats (Rattus norvegicus [12]): 2
- Ovulating rats (Rattus norvegicus [13]): 0

- Ki [3]: 1.1 nM
SMILES: CC(=O)N[C@@H]1CCC(=O)NCC(=O)NCCC[C@H]2NC(=O)[C@@H](CC(=O)NC[C@H](C(N)=O)NC(=O)[C@H]3CCCN3C(=O)[C@H](CCCN=C(N)N)NC(=O)[C@@H](CC(C)C)NC(=O)[C@@H](Cc3ccc4ccccc4c3)NC2=O)NC(=O)[C@@H](Cc2c[nH]c3ccccc23)NC(=O)[C@H](Cc2ccc(Cl)cc2)NC1=O
- Ovulating rats (Rattus norvegicus [14]): 5
- Ovulating rats (Rattus norvegicus [15]): 7
- Ovulating rats (Rattus norvegicus [16]): 0

- Ki [3]: 5.7 nM
SMILES: CC(=O)N[C@@H]1CSSC[C@H]2NC(=O)[C@@H](CC(=O)NC[C@H](C(N)=O)NC(=O)[C@H]3CCCN3C(=O)[C@H](CCCN=C(N)N)NC(=O)[C@@H](CC(C)C)NC(=O)[C@H](Cc3ccc4ccccc4c3)NC2=O)NC(=O)[C@@H](Cc2c[nH]c3ccccc23)NC(=O)[C@H](Cc2ccc(Cl)cc2)NC1=O
- Ovulating rats (Rattus norvegicus [17]): 7
